Measured values published in US11046686B2, “Thiadiazole IRAK4 compounds” (Gilead Sciences, Inc., priority 2018, dated 2021).
Read-outs that look alike come from different tables or passages of the source.

Experiments:
TNFα = assay: IRAK4 Monocyte TNFα Cell Based Assay; design: species or system human
Method in brief: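 Human monocytes (5,000/well) pretreated with compound 1 h at 37 °C (0.1% DMSO final), then stimulated with 50 pg/ml LPS for 4 h. Secreted TNFα measured by TR-FRET two-antibody detection after overnight incubation at room temperature; % control relative to unstimulated and LPS-stimulated wells.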

IRAK4 enzyme = IRAK4 enzyme (Homo sapiens (Human), UniProt Q9NWZ3); assay: IRAK4 Biochemical Assay (TR-FRET, STK1 KinEASE)
Method in brief: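 IRAK4 (0.75 nM) preincubated 15 min with compound and […] STK1 peptide, then started with 500 μM ATP in HEPES pH 7.0 buffer with MgCl2, DTT, BSA, NP-40; 120 min at room temperature.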

[1] = Homo sapiens, Monocyte, human monocytes, second part of Table 2, compounds 33-343, unit inferred, read-out: EC50 MONO TNF HTRF
[2] = human monocytes, second part of Table 2, compounds 33-343, unit inferred, read-out: EC50 MONO TNF HTRF
[3] = second part of Table 2, compounds 33-343, unit inferred, read-out: IC50 IRAK4-HTBS
[4] = Homo sapiens, Monocyte, read-out: EC50 MONO TNF HTRF
[5] = Homo sapiens, Monocyte, human monocytes, LPS stimulated, compounds 1-32, read-out: EC50 TNF
[6] = compounds 1-32, read-out: IC50 HTRF

Sequence of IRAK4 enzyme (Q9NWZ3 whole entry): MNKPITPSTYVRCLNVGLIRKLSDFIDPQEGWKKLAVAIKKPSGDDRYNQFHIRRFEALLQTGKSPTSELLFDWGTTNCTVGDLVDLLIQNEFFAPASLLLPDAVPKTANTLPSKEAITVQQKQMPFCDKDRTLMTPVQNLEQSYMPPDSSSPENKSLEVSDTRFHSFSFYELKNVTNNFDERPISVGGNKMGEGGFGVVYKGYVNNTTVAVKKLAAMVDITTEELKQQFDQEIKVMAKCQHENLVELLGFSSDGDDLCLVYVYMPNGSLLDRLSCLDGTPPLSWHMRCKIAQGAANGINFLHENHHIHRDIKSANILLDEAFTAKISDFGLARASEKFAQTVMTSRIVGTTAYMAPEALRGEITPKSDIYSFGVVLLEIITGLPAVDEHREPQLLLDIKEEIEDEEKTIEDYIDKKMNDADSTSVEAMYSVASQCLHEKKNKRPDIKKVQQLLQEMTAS

| Structure (SMILES) | EC50 (TNFα; [1]) [nM] | IC50 (IRAK4 enzyme) [nM] | further results |
| --- | --- | --- | --- |
| C[C@]1(O)CCN(c2nnc(-c3cnc(-c4ccc5cc(C#N)cnn45)cc3NC3CCOCC3)s2)C[C@@H]1F [Example 204, 7-(5-(5-((3S,4S)-3-fluoro-4-hydroxy-4-methylpiperidin-1-yl)-1,3,4-thiadiazol-2-yl)-4-((tetrahydro-2H-pyran-4-yl)amino)pyridin-2-yl)pyrrolo[1,2-b]pyridazine-3-carbonitrile] | 3.5 | 0.35 |  |
| CC(=O)N[C@H]1CC[C@@H](c2nnc(-c3cnc(-c4ccc5cc(C#N)cnn45)cc3NC(C)C)s2)CC1 [Example 127, N-((1s,4s)-4-(5-(6-(3-cyanopyrrolo[1,2-b]pyridazin-7-yl)-4-(isopropylamino)pyridin-3-yl)-1,3,4-thiadiazol-2-yl)cyclohexyl)acetamide] |  |  | EC50 (TNFα; [2]): 9.9 nM; IC50 (IRAK4 enzyme; [3]): 0.64 nM |
| CC(C)(O)[C@@H]1C[C@@H]1c1nnc(-c2cnc(-c3ccc4cc(C#N)cnn34)cc2NC2COC2)s1 (single isomer, unassigned; isomer 3) [136 Isomer 3] |  |  | EC50 (TNFα; [2]): 39 nM; IC50 (IRAK4 enzyme; [3]): 0.64 nM |
| CC(C)Nc1cc(-c2ccc3cc(C#N)cnn23)ncc1-c1nnc(N2C[C@@H]3C[C@H]2CO3)s1 [Compound 238, 7-(5-(5-((1S,4S)-2-oxa-5-azabicyclo[2.2.1]heptan-5-yl)-1,3,4-thiadiazol-2-yl)-4-(isopropylamino)pyridin-2-yl)pyrrolo[1,2-b]pyridazine-3-carbonitrile] | 12.6 | 0.46 |  |
| CC(C)Nc1cc(-c2ccc3cc(C#N)cnn23)ncc1-c1nnc(N2CC[C@@](C)(O)[C@H](F)C2)s1 [Example 191, 7-(5-(5-((3R,4R)-3-fluoro-4-hydroxy-4-methylpiperidin-1-yl)-1,3,4-thiadiazol-2-yl)-4-(isopropylamino)pyridin-2-yl)pyrrolo[1,2-b]pyridazine-3-carbonitrile] | 22.9 | 1.15 |  |
| CC(=O)N[C@@H]1CC[C@@H](c2nnc(-c3cnc(-c4ccc5cc(C#N)cnn45)cc3NC(C)C)s2)OC1 [Example 81, N-((3R,6S)-6-(5-(6-(3-cyanopyrrolo[1,2-b]pyridazin-7-yl)-4-(isopropylamino)pyridin-3-yl)-1,3,4-thiadiazol-2-yl)tetrahydro-2H-pyran-3-yl)acetamide] | 21.4 | 0.66 |  |
| C[C@H](C#N)Nc1cc(-c2ccc3cc(C#N)cnn23)ncc1-c1nnc(N2CC3CC(C2)O3)s1 [Example 178, 7-(5-(5-(6-oxa-3-azabicyclo[3.1.1]heptan-3-yl)-1,3,4-thiadiazol-2-yl)-4-(((R)-1-cyanoethyl)amino)pyridin-2-yl)pyrrolo[1,2-b]pyridazine-3-carbonitrile] |  | 0.45 | EC50 (TNFα; [4]): 4.9 nM |
| CC(=O)NC12CCC(c3nnc(-c4cnc(-c5ccc6cc(C#N)cnn56)cc4NC(C)C)s3)(CC1)OC2 [Example 83, N-(1-(5-(6-(3-cyanopyrrolo[1,2-b]pyridazin-7-yl)-4-(isopropylamino)pyridin-3-yl)-1,3,4-thiadiazol-2-yl)-2-oxabicyclo[2.2.2]octan-4-yl)acetamide] | 52.5 | 1.37 |  |
| CC(=O)N[C@H]1CCCN(C(=O)c2nnc(-c3cnc(-c4ccc5cc(C#N)cnn45)cc3NC(C)C)s2)C1 [Example 48, (S)-N-(1-(5-(6-(3-cyanopyrrolo[1,2-b]pyridazin-7-yl)-4-(isopropylamino)pyridin-3-yl)-1,3,4-thiadiazole-2-carbonyl)piperidin-3-yl)acetamide] | 37.5 | 1.91 |  |
| CC(C)Nc1cc(-c2ccc3cc(C#N)cnn23)ncc1-c1nnc(N2CC[C@@H](O)C(F)(F)C2)s1 [Example 162, (R)-7-(5-(5-(3,3-difluoro-4-hydroxypiperidin-1-yl)-1,3,4-thiadiazol-2-yl)-4-(isopropylamino)pyridin-2-yl)pyrrolo[1,2-b]pyridazine-3-carbonitrile] | 26.5 | 2.29 |  |
| CC(=O)N1C[C@H]2C[C@@H]1CN2c1nnc(-c2cnc(-c3ccc4cc(C#N)cnn34)cc2NC(C)C)s1 [Example 303, 7-(5-(5-((1R,4R)-5-acetyl-2,5-diazabicyclo[2.2.1]heptan-2-yl)-1,3,4-thiadiazol-2-yl)-4-(isopropylamino)pyridin-2-yl)pyrrolo[1,2-b]pyridazine-3-carbonitrile] | 12.5 | 0.51 |  |
| CC(C)Nc1cc(-c2ccc3cc(C#N)cnn23)ncc1-c1nnc(N2CC3(COC3)C2)s1 [Compound 252, 7-(5-(5-(2-oxa-6-azaspiro[3.3]heptan-6-yl)-1,3,4-thiadiazol-2-yl)-4-(isopropylamino)pyridin-2-yl)pyrrolo[1,2-b]pyridazine-3-carbonitrile] | 7 | 0.29 |  |
| CC(C)Nc1cc(-c2ccc3cc(C#N)cnn23)ncc1-c1nnc(C(=O)N2CCOCC2)s1 [Example 18, 7-(4-(isopropylamino)-5-(5-(morpholine-4-carbonyl)-1,3,4-thiadiazol-2-yl)pyridin-2-yl)pyrrolo[1,2-b]pyridazine-3-carbonitrile] |  |  | EC50 (TNFα; [5]): > 10000 nM; IC50 (IRAK4 enzyme; [6]): 1000 nM |
| CC(=O)N1[C@@H]2COC[C@H]1CN(c1nnc(-c3cnc(-c4ccc5cc(C#N)cnn45)cc3NC(C)C)s1)C2 [Compound 265, 7-(5-(5-((1R,5S)-9-acetyl-3-oxa-7,9-diazabicyclo[3.3.1]nonan-7-yl)-1,3,4-thiadiazol-2-yl)-4-(isopropylamino)pyridin-2-yl)pyrrolo[1,2-b]pyridazine-3-carbonitrile] |  | 2.43 | EC50 (TNFα; [4]): 11.3 nM |
| CC(C)Nc1cc(-c2ccc3cc(C#N)cnn23)ncc1-c1nncs1 [Example 211, 7-(4-(isopropylamino)-5-(1,3,4-thiadiazol-2-yl)pyridin-2-yl)pyrrolo[1,2-b]pyridazine-3-carbonitrile] | 78.2 |  | IC50 (IRAK4 enzyme; [3]): 0.98 nM |
| CC(=O)NC12CC(c3nnc(-c4cnc(-c5ccc6cc(C#N)cnn56)cc4NC4CCOCC4)s3)(C1)C2 [Compound 270, N-(3-(5-(6-(3-cyanopyrrolo[1,2-b]pyridazin-7-yl)-4-((tetrahydro-2H-pyran-4-yl)amino)pyridin-3-yl)-1,3,4-thiadiazol-2-yl)bicyclo[1.1.1]pentan-1-yl)acetamide] | 10.7 | 0.65 |  |
| CC(C)Nc1cc(-c2ccc3cc(C#N)cnn23)ncc1-c1nnc(C2CCN(CC(F)F)CC2)s1 [Example 133, 7-(5-(5-(1-(2,2-difluoroethyl)piperidin-4-yl)-1,3,4-thiadiazol-2-yl)-4-(isopropylamino)pyridin-2-yl)pyrrolo[1,2-b]pyridazine-3-carbonitrile] | 531 | 1.47 |  |
| C[C@]1(O)CC[C@@H](c2nnc(-c3cnc(-c4ccc5cc(C#N)cnn45)cc3NC3COC3)s2)CC1 [Example 208, 7-(5-(5-((1s,4s)-4-hydroxy-4-methylcyclohexyl)-1,3,4-thiadiazol-2-yl)-4-(oxetan-3-ylamino)pyridin-2-yl)pyrrolo[1,2-b]pyridazine-3-carbonitrile] |  |  | EC50 (TNFα; [2]): 13.6 nM; IC50 (IRAK4 enzyme; [3]): 0.67 nM |
| CC(=O)NC1CCN(c2nnc(-c3cnc(-c4ccc5cc(C#N)cnn45)cc3NC(C)C)s2)[C@@H](C)C1 (stereo partly drawn) [Compound 249, N-((2S)-1-(5-(6-(3-cyanopyrrolo[1,2-b]pyridazin-7-yl)-4-(isopropylamino)pyridin-3-yl)-1,3,4-thiadiazol-2-yl)-2-methylpiperidin-4-yl)acetamide] | 8.9 | 0.91 |  |
| CC(C)Nc1cc(-c2ccc3cc(C#N)cnn23)ncc1-c1nnc(N2CC[C@H](O)C(F)(F)C2)s1 [Example 161, (S)-7-(5-(5-(3,3-difluoro-4-hydroxypiperidin-1-yl)-1,3,4-thiadiazol-2-yl)-4-(isopropylamino)pyridin-2-yl)pyrrolo[1,2-b]pyridazine-3-carbonitrile] | 34.7 | 1.48 |  |
| Cc1nnc(-c2cnc(-c3ccc4cc(C#N)cnn34)cc2NC(C)C)s1 [Example 25, 7-(4-(isopropylamino)-5-(5-methyl-1,3,4-thiadiazol-2-yl)pyridin-2-yl)pyrrolo[1,2-b]pyridazine-3-carbonitrile] |  |  | EC50 (TNFα; [5]): 1460 nM; IC50 (IRAK4 enzyme; [6]): < 1 nM |
| CC(C)Nc1cc(-c2ccc3cc(C#N)cnn23)ncc1-c1nnc(-c2ccc(N)cc2)s1 [Example 7, 7-(5-(5-(4-aminophenyl)-1,3,4-thiadiazol-2-yl)-4-(isopropylamino)pyridin-2-yl)pyrrolo[1,2-b]pyridazine-3-carbonitrile] |  |  | EC50 (TNFα; [5]): > 10000 nM; IC50 (IRAK4 enzyme; [6]): 9 nM |
| CC(C)Nc1cc(-c2ccc3cc(C#N)cnn23)ncc1-c1nnc(N2C3CCC2COC3)s1 [Compound 236, 7-(5-(5-(3-oxa-8-azabicyclo[3.2.1]octan-8-yl)-1,3,4-thiadiazol-2-yl)-4-(isopropylamino)pyridin-2-yl)pyrrolo[1,2-b]pyridazine-3-carbonitrile] |  | 0.83 | EC50 (TNFα; [4]): 25.8 nM |
| CNc1cc(-c2ccc3cc(C#N)cnn23)ncc1-c1nnc([C@H]2CC[C@H](NC(C)=O)CC2)s1 [Example 22, N-((1r,4r)-4-(5-(6-(3-cyanopyrrolo[1,2-b]pyridazin-7-yl)-4-(methylamino)pyridin-3-yl)-1,3,4-thiadiazol-2-yl)cyclohexyl)acetamide] |  |  | EC50 (TNFα; [5]): 25 nM; IC50 (IRAK4 enzyme; [6]): < 1 nM |
| CC(=O)NC12CC(c3nnc(-c4cnc(-c5ccc6cc(C#N)cnn56)cc4NC(C)C)s3)(C1)C2 [Compound 246, N-(3-(5-(6-(3-cyanopyrrolo[1,2-b]pyridazin-7-yl)-4-(isopropylamino)pyridin-3-yl)-1,3,4-thiadiazol-2-yl)bicyclo[1.1.1]pentan-1-yl)acetamide] | 43.3 | 1.37 |  |
